{"source": "patent US9193755B1", "about": "“TFEB variants and uses thereof” (Fondazione Telethon, priority 2011, dated 2015)", "key": {"TFEB": {"system": "TFEB", "assay": "TFEB nuclear translocation in starved / re-stimulated HeLa cells (nuclear/cytosolic fractionation, immunofluorescence)", "assay_type": "cell-based, human", "details": "for nuclear translocation of exogenously expressed TFEB: HeLa and HEK-293T cells transfected with TFEB-3xFLAG, treated overnight; for TFEB nuclear translocation compared to starved media alone: EBSS media supplemented with the factor", "experimental": "Cells were seeded at 50% of confluence in 6 well dishes and serum starved overnight (ON). Normal medium was added the following day either in presence of DMSO or kinase inhibitors. Subcellular fractionation was carried out as previously reported."}, "mTORC1": {"system": "mTORC1", "assay": "mTORC1 activity by level of p-P70S6K (immunoblotting)", "assay_type": "cell-based, human", "details": "HeLa cells treated overnight", "quoted_text": "Cells were lysed with M-PER buffer (Thermo) containing protease and phosphatase inhibitors (Sigma); nuclear/cytosolic fractions were isolated as above described. […] Immunoblotting analysis was performed by transferring the protein onto a nitrocellulose membrane with an I-Blot (Invitrogen). The membrane was blocked with 5% non-fat milk in TBS-T buffer (TBS containing 0.05% Tween-20) and incubated with primary antibodies anti-FLAG and anti-TUBULIN (Sigma; 1:2000), anti-H3 (Cell Signaling; 1:10 000) at room temperature for 2 h whereas the following antibodies were incubated ON in 5% BSA: anti-TFEB (My Biosource; 1:1000), anti-P TFEB (1:1000) ERK1/2, p-ERK1/2, p-P70S6K, P70S6K (Cell Signaling; 1:1000). The membrane was washed three times with TBS-T buffer and incubated with alkaline phosphatase-conjugated IgG (Promega; 0.2 mg/ml) at room temperature for 1 h. The membrane was washed three times with TBS buffer and the expressed proteins were visualized by adding 10 ml Western Blue Stabilized Substrate (Promega)."}, "primary hepatocytes": {"system": "primary hepatocytes", "details": "for upregulation / transcriptional response of TFEB target genes: hepatocytes from TFEB conditional knockout mice; for levels of P-ERK / mTOR as measured by the level of p-S6K: primary hepatocytes", "quoted_text": "Liver was dissociated in a petri dish, cell pellet was washed in HBSS and plated at density of 5×10^5 cells/35 mm dish and cultured in William's medium E supplemented with 10% FBS, 2 mM glutamine, 0.1 mM Insulin, 0.1 mM Dexamethasone and pen/strep. The next day, cells were treated as described in the text.\nTotal RNA was extracted from tissues using TRIzol (Invitrogen) or from cells using RNAesy column (Qiagen). Reverse transcription was performed using TaqMan reverse transcription reagents (Applied Biosystems). Lysosomal and autophagic gene specific primers were previously reported^2. Autophagy gene primers and mouse primers were purchased from SABiosciences. Fold change calculations were calculated using SABiosciences' online data analysis website (http colon double forward slash www dot sabiosciences dot com forward slash per forward slash arrayanalysis dot php) which uses the DDCt method. […] Next, the DDCt value is calculated between the “control” group and the “experimental” group. Lastly, the fold change is calculated using 2^(−DDCt). Biological replicates were grouped to allow calculating the fold change values. Unpaired T-Test was used to calculate statistical significance. Asterisks in the graph indicate that the P-value was <0.05."}, "[1]": {"assay": "Dissolution of test peptides for in vitro kinase assay", "assay_type": "physicochemical", "details": "1 mM in 50 mM HEPES pH7", "experimental": "TFEB-S-142: aa. o 117-166 of Seq Id No. 2: […] and TFEB-A-142: Seq Id No. 4, corresponding to aa. of 117-166 of Seq Id No. 2 where Ser 142 was substituted with Ala (bold): […] were synthesized by […] corp. The test peptides TFEB-A-142 and TFEB-S-142 were made up to 1 mM in 50 mM HEPES pH7. […] The kinase assay was performed at room temperature for 40 minutes at 200 μM ATP and 100 μM of each peptide, using Millipore's standard radiometric assay. All protein kinases were used at their standard KinaseProfiler™ assay concentration. Following incubation, all assays were stopped by the addition of acid and an aliquot spotted onto P30 and Filtermat A to separate products. All tests were carried out in triplicate, and the usual substrate for each protein kinase included as a control. In Vivo Gene Delivery"}, "TFEB S142": {"system": "TFEB S142", "assay": "TFEB S142 phosphorylation with p-S142 phosphospecific antibody", "assay_type": "cell-based, human", "details": "starved cells supplemented with normal media", "text": "The mouse anti-TFEB monoclonal antibody was purchased from My Biosource catalogue No. MBS120432. To generate anti-pS142 specific antibodies, rabbits were immunized with the following peptide coupled to KLH: AGNSAPN{pSer}[…]. Following the fourth immunization, rabbits were sacrificed and the serum was collected. Non-phosphospecific antibodies were depleted from the serum by circulation through a column containing the non-phosphorylated antigene. The phosphospecific antibodies were subsequently purified using a column containing the phosphorylated peptide.\nCells were lysed with M-PER buffer (Thermo) containing protease and phosphatase inhibitors (Sigma); nuclear/cytosolic fractions were isolated as above described. Proteins were separated by SDS-PAGE (Invitrogen; reduced NuPAGE 4-12% Bis-tris Gel, MES SDS buffer). If needed, the gel was stained using 20 ml Imperial Protein Stain (Thermo Fisher) at room temperature for 1 h and de-stained with water. Immunoblotting analysis was performed by transferring the protein onto a nitrocellulose membrane with an I-Blot (Invitrogen). […]"}, "long-lived proteins": {"system": "long-lived proteins", "assay": "Degradation of long-lived proteins", "assay_type": "cell-based", "details": "autophagy inhibitor added", "experimental": "Sub-confluent cells were incubated with L-U^14C-serine for 20 h and chased for 1 h with cold media to degrade short-lived proteins. Subsequently cells were incubated with either normal media or starvation media (eventually in the presence of 3-MA) for 4 h. The rate of long-lived protein degradation was calculated from the ratio of soluble radioactivity in the media to that insoluble in the acid-precipitable cell pellet."}, "mTOR": {"biological_target": "mTOR (Homo sapiens, UniProt P42345)", "details": "recent data (41, 47, 48); cited from earlier work"}}}
{"compound": "CC/C=C\\C=C/C(=O)N/C=C/C[C@H]1C[C@@H](O)[C@@H](C)C/C=C/Cc2cccc(O)c2C(=O)O1", "note": "[Salicylihalamide A]", "values": [{"measurement": "nuclear translocation of exogenously expressed TFEB", "setting": "TFEB", "result": "induced nuclear translocation"}, {"measurement": "mTORC1 activity as measured by level of p-P70S6K", "setting": "mTORC1", "result": "inhibited"}]}
{"compound": "insulin: growth factor supplemented to EBSS media", "values": [{"measurement": "TFEB nuclear translocation compared to starved media alone", "setting": "TFEB", "result": "significant inhibition"}]}
{"compound": "N#CC(=C(/N)Sc1ccccc1N)/C(C#N)=C(\\N)Sc1ccccc1N", "note": "[U0126]", "values": [{"measurement": "TFEB molecular weight shift induced by nutrients", "setting": "TFEB", "result": "only a partial TFEB molecular weight shift"}, {"measurement": "TFEB nuclear localization", "setting": "TFEB", "result": "resulted in TFEB nuclear localization, at level similar to starvation"}]}
{"compound": "LIF: cytokine supplemented to EBSS media", "values": [{"measurement": "TFEB nuclear translocation compared to starved media alone", "setting": "TFEB", "result": "Almost no effect"}]}
{"compound": "CCN(CC)CCCC(C)Nc1ccnc2cc(Cl)ccc12", "note": "(stereo not drawn) [chloroquine]", "values": [{"measurement": "nuclear translocation of exogenously expressed TFEB", "setting": "TFEB", "result": "induced nuclear translocation"}, {"measurement": "upregulation / transcriptional response of TFEB target genes", "setting": "primary hepatocytes", "result": "significantly blunted"}, {"measurement": "expression of TFEB target genes", "setting": "primary hepatocytes; hepatocytes from control mice", "result": "upregulated"}, {"measurement": "levels of P-ERK", "setting": "primary hepatocytes", "result": "unaffected"}, {"measurement": "mTOR as measured by the level of p-S6K", "setting": "primary hepatocytes", "result": "inhibited mTOR"}]}
{"compound": "EGF: growth factor supplemented to EBSS media (NSDSECPLSHDGYCLHDGVCMYIEALDKYACNCVVGYIGERCQYRDLKWWELR; UniProt P01133 971-1023, looked up)", "values": [{"measurement": "TFEB nuclear translocation compared to starved media alone", "setting": "TFEB", "result": "significant inhibition"}]}
{"compound": "PPPAASPGVRAGHVLSSSAGNSAPNSPMAMLHIGSNPERELDDVIDNIMR (listed as Homo sapiens) [TFEB-S-142, peptide aa]", "values": [{"measurement": "dissolution", "setting": "[1]", "result": "no issue with dissolution"}]}
{"compound": "CCC(=O)N1CCN(c2ccc(-n3c(=O)ccc4cnc5ccc(-c6cnc7ccccc7c6)cc5c43)cc2C(F)(F)F)CC1", "note": "[Torin 1]", "values": [{"measurement": "TFEB subcellular localization", "setting": "TFEB; starved cells stimulated with amino-acid rich medium, Torin 1 250 nM, Rapamycin 2.5 μM", "result": "massive TFEB nuclear accumulation"}, {"measurement": "nutrient-induced S142 phosphorylation", "setting": "TFEB S142", "result": "clearly blunted"}, {"measurement": "upregulation / transcriptional response of TFEB target genes", "setting": "primary hepatocytes", "result": "significantly reduced"}, {"measurement": "levels of P-ERK", "setting": "primary hepatocytes", "result": "unaffected"}, {"measurement": "mTOR as measured by the level of p-S6K", "setting": "primary hepatocytes", "result": "inhibited mTOR"}]}
{"compound": "Cn1cnc(N)c2ncnc1-2", "note": "[3-methyl adenine, reference compound]", "values": [{"measurement": "TFEB-induced enhancement of long-lived protein degradation", "setting": "long-lived proteins", "result": "abolished"}]}
{"compound": "PPPAASPGVRAGHVLSSSAGNSAPNAPMAMLHIGSNPERELDDVIDNIMR [TFEB-A-142]", "values": [{"measurement": "dissolution", "setting": "[1]", "result": "no issue with dissolution"}]}
{"compound": "Nc1ccc(-c2ccc3ncc4ccc(=O)n(-c5cccc(C(F)(F)F)c5)c4c3c2)cn1", "note": "[Torin 2]", "values": [{"measurement": "mTOR inhibition", "setting": "mTOR", "result": "completely inhibiting mTOR activity"}]}
